According to patent US10857185B2, “Compositions and methods for reprogramming non-neuronal cells into neuron-like cells” (Beihao Stem Cell and Regenerative Medicine Research …, priority 2015, dated 2020):
Entries after “also recorded” stand apart in the source; their conditions may differ.

What was measured:
CiNs = assay: Whole-cell patch-clamp recordings of CiNs; assay type: cell-based, mouse; conditions: CiNs after re-plating; data not shown
Method: Primary cultures of neurons were prepared from postnatal day 1 wild-type C57 mice. Mice were decapitated, and their brains were removed in pre-cooled physiological saline. The hippocampus was dissected in pre-cooled HBSS (9.5 g/L Hanks' balanced salts, 4.2 mM NaHCO3, 10 mM HEPES, 12 mM MgSO4, 7 g/L glucose, 0.3 g/L bull serum albumin, and 0.5% penicillin/streptomycin, with the pH adjusted to 7.4 with NaOH). Tissues were digested with 5 ml 0.2% trypsin (Gibco, dissolved in digestion solution) for 2-3 min, and the digestion reaction was stopped with 1 mg/ml trypsin inhibitor (Sigma, dissolved in HBSS). The digestion solution contained (in mM) 4.2 NaHCO3, 25 HEPES, 137 NaCl, 5 KCl, and 7 Na2HPO4, and the pH was adjusted to 7.4 with NaOH. […]
For whole-cell patch-clamp recordings, the ACSF (artificial cerebrospinal fluid) extracellular solution contained (in mM) 141 NaCl, 2.5 KCl, 1.3 MgCl2, 2.4 CaCl2, 1.25 NaH2PO4 10 glucose and 10 HEPES (pH adjusted to 7.4 with NaOH), and the internal pipette solution contained (in mM) 140 potassium gluconate, 1 CaCl2, 10 EGTA, 2 MgCl2, 10 HEPES, and 5 Na2ATP (pH adjusted to 7.3 with KOH). […] Tetrodotoxin (TTX; 10 μM) dissolved in extracellular solution was applied with an ALA-VM4 valve manifold (Scientific Instruments), and washout from the iNs was assessed to determine whether the inward fast inactivating current was a sodium current. […]

mouse fibroblasts = assay: Transgene-free chemical induction of mouse fibroblasts into neuron-like cells (immunostaining counts); assay type: cell-based
Method: Secondary screening was performed to identify additional small molecules that facilitate neuronal reprogramming and maturation (shown schematically in FIG. 2A). In this screening, the effect of the additional small molecules was evaluated by observing neurite outgrowth. Desirable additional small molecules could induce the neurons with an improved neurite outgrowth as signs of enhanced reprogramming and maturation, ideally with highly complex morphologies. Improved neurite morphologies were evaluated in terms of enhanced neurite branches and neurite length. Further, characterization (e.g. TUJ1 immunostaining) was performed to confirm the observation. Fibroblasts were seeded into 12-well plates and each additional small molecule was added well by well into the culture medium containing the basic small-molecule cocktail (SM-cocktail+1 Screening), while SM-cocktail+DMSO was used as a negative control. […] TUJ1-positive cells with circular cell bodies and neurite outgrowth that is at least three-fold longer than the cell body were quantified. […] Cells were washed with PBS twice and then fixed with 4% paraformaldehyde for 20 min at room temperature. Afterward, the cells were washed with PBS twice and then blocked and permeabilized with 0.25% PBST (PBS plus 0.25% Triton X-100) and 3% donkey serum (DS) for 1 hour at 37° C. A PAP pen was used to outline the fields for staining. Diluted primary antibodies were added to the outlined fields, and the samples were incubated at 4° C. overnight. Next, the cells were washed three times with PBS and incubated in PBS plus 3% DS with diluted secondary antibodies for 1 hour at room temperature. The nuclei of the cells were stained with DAPI (Roche Molecular Biochemicals) if needed. […] The following secondary antibodies were used in this study: FITC and TRITC-conjugated secondary antibodies (Jackson ImmunoResearch) and Alexa Fluor 647-conjugated secondary antibodies (Life Technologies).

fibroblasts = assay: Gene expression (RT-qPCR) after removing each small molecule from the cocktail; assay type: cell-based, mouse
Method: Total RNA was extracted using the Qiagen RNeasy Plus mini kit and was reverse transcribed into cDNA with TransScript One-step gDNA Removal and cDNA Synthesis SuperMix (TransGen Biotech). Real-time PCR was performed using a 7300 Real-Time PCR system (Applied Biosystems) with Power SYBR Green PCR Master Mix (2×).
Gene expression was analyzed using the ΔΔCt method. All the results were normalized to β-actin expression, and the values of uninduced fibroblasts were set to 1. Two replicates were used to determine the error bars.
Next, the roles of the small molecules in regulating these endogenous cell-fate-determining factors were determined.

[1] = I-BET151 added to FICS cocktail (FICS+1 screening)

How did the “effect of receptor antagonists on EPSCs of CiNs” value (CiNs) turn out when `NC(CCCP(=O)(O)O)C(=O)O` (stereo not shown) [AP5, 2-amino-5-phosphonovaleric acid] was run?
Its value is “blocked”.

Which “effect of receptor antagonists on EPSCs of CiNs” value (CiNs) does the source give for `N#Cc1cc2c(cc1[N+](=O)[O-])=NC(=O)C(=O)N=2` [CNQX, 6-cyano-7-nitroquinoxaline-2,3-dione] here?
Its value is “blocked”.

What does the source list for `COc1cc2c(cc1-c1c(C)noc1C)ncc1[nH]c(=O)n([C@H](C)c3ccccn3)c12` [I-BET151, 7-(3,5-dimethylisoxazol-4-yl)-8-methoxy-1-((R)-1-(pyridin-2-yl)ethyl)-1H-imidazo[4,5-c]quinolin-2(3H)-one]?
TUJ1-positive cells yield (mouse fibroblasts; [1]): 90%; reprogramming rate and neurite outgrowth of the induced neurons (mouse fibroblasts; [1]): dramatically enhanced; toxicity to cells being induced (mouse fibroblasts; enhancing reprogramming with I-BET151): some toxicity; role in suppression of the endogenous fibroblast-fate-determining program (fibroblasts): core small molecule to suppress the endogenous fibroblast-fate-determining program

For `O=C(NC1CC1)c1cc(-c2cccs2)on1` [ISX9, N-cyclopropyl-5-(2-thienyl)-3-isoxazolecarboxamide], which “role in activation of master neural / neuron-specific genes” value (fibroblasts; 48 h) is on record?
The value was “necessary for activation of multiple neuron-specific genes; also recorded: essential to induce the master neural genes”.

With `NC(=O)c1ccc(-c2nc(-c3ccc4c(c3)OCO4)c(-c3ccccn3)[nH]2)cc1` [SB431542, 4-[4-(1,3-benzodioxol-5-yl)-5-(2-pyridinyl)-1H-imidazol-2-yl]benzamide] as the molecule, how does the “survival and neurite outgrowth of the induced neurons” value (mouse fibroblasts; in FICSB cocktail) read?
The value was “enhanced”.

What about the “need of the chemical for generating neurons” value (mouse fibroblasts; withdrawing individual chemical from FICSB cocktail) of the same molecule?
The value was “dispensable for generating neurons”.

With `C[C@@H](N)[C@H]1CC[C@H](C(=O)Nc2ccncc2)CC1.Cl.Cl` [Y2632, (+)-(R)-trans-4-(1-aminoethyl)-N-(4-pyridyl)cyclohexanecarboxamide dihydrochloride] as the molecule, how does the “survival rate and reprogramming” value (mouse fibroblasts; treatment from Day 0 to about day 4 together with I-BET151-containing cocktail) read?
Its value is “enhanced the survival rate and reprogramming”.
